Measurements as given in EP1852441B1, “Agents that modulate EPH receptor activity” (The Burnham Institute, priority 2002, dated 2004).

Legend:
MAP kinase = MAP kinase phosphorylation in HUVE cells (immunoblot); format: cell-based, human; settings: non-serum starved HUVE cells
Source text: (§1) Cell lysates were used to immunoprecipitate EphA2 as described above or probed by immunoblotting with anti-phospho-p44/p42 MAPK antibody (Cell Signaling Technology, Beverly, MA) followed by an anti-mouse IgG peroxidase-conjugated antibody (Amersham) and re-probed with an anti-ERK2 antibody (Santa Cruz Biotechnology, Santa Cruz, CA) followed by a secondary anti-rabbit IgG peroxidase-conjugated antibody (Amersham). Erk2 (p42 MAP kinase) is the major phosphorylated form present. EphA2 was immunoprecipitated (IP) and probed by immunoblotting with anti-ghosphotyrosine (PTyr) or anti-EphA2 antibodies.

EphA2 = EphA2 tyrosine phosphorylation and MAP kinase signaling in HUVE cells; format: cell-based, human; settings: in the absence of ephrin
Procedure: Ephin-A1 Fc was cross-linked by preincubation with 0.2 µg/ml anti-human fc antibodies for 30 minutes on ice. After stimulation, the cells were lysed in modified RIPA buffer {Ogawa, K. et al. 2000 Oncogene 19: 6043-6052). Cell lysates were immunoprecipitated with 5 µg anti-EphA2 antibody (Upstate, Lake Placid, NY), separated by SDS polyacrylamide gel electrophoresis and probed by immunobloting with peroxidase-conjugated anti-phosphotyrosine antibody (Transduction Laboratories, San Diego, CA) or anti-EphA2 antibody followed by a secondary anti-mouse IgG peroxidase-conjugated antibody (Amersham).
as §1

endogenous EphA4 = molecular target: T1, endogenous EphA4 (Mus musculus, UniProt Q03137); experiment: ephrin-A3 Fc induced EphA4 tyrosine phosphorylation in hippocampal slices (immunoblot); format: cell-based; settings: peptide together with ephrin-A3 Fc, micromolar concentrations
T1 construct: tyrosine phosphorylation of endogenous EphA4; from tissue; host or cells: mouse hippocampal slices
T1 sequence (Q03137 20-986): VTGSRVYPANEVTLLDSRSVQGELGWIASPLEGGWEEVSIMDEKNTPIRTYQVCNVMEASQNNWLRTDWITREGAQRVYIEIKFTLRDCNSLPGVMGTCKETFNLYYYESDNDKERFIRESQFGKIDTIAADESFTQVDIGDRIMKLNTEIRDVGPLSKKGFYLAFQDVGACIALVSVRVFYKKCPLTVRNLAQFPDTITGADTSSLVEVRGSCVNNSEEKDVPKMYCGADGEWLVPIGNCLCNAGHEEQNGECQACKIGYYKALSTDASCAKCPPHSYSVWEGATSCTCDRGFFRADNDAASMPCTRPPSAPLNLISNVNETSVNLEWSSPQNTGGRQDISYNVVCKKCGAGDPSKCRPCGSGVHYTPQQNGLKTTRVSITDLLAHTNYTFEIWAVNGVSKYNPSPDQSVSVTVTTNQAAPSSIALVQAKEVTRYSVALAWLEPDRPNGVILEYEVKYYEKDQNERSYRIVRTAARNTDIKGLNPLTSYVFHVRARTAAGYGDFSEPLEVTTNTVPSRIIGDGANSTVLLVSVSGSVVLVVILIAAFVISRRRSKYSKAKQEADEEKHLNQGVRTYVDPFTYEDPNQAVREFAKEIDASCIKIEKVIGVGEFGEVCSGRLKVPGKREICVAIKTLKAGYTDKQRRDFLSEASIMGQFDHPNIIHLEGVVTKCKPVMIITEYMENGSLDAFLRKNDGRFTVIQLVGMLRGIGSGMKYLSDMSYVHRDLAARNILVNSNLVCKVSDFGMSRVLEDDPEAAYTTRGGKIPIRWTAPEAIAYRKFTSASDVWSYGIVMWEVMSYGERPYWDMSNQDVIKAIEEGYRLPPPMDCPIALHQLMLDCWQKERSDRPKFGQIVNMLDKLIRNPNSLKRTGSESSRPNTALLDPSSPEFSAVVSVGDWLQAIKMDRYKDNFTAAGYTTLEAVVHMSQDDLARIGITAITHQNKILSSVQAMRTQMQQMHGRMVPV

neural crest cells [1] = experiment: neural crest cell migration assay in trunk explants; format: cell-based, Chick; settings: 24 hours, 13 µM KYL peptide, 10 µg/ml EphA4-Fc
Procedure: (§2) In this example to address whether the EphA4-binding peptides can inhibit endogenous ephrin-EphA4 physiological function, a neural crest cell migration assay (McLennan, R. & Krull, C.E. 2002 Gene Expr 10:295-305) was utilized. […] The migration of neural crest cells was determined by staining for HNK-1 for neural crest cells and ephrin-B1 to label the caudal sclerotome. […] Neural crest cells migrated properly into the rostral sclerotome in explants treated with control Fc.

neural crest cells [2] = experiment: Neural crest cell migration assay in trunk explants; format: cell-based; settings: 13 µM peptide, 24 hours, chick trunk explants
Procedure: as §2

## CSCC[C@H](NC(=O)[C@H](CCSC)NC(=O)[C@@H]1CCCN1C(=O)[C@@H](NC(=O)[C@H](CO)NC(=O)[C@H](CC(=O)O)NC(=O)[C@@H]1CCCN1C(=O)[C@H](Cc1ccc(O)cc1)NC(=O)[C@H](C)NC(=O)[C@H](CO)NC(=O)[C@@H](N)Cc1ccc(O)cc1)C(C)C)C(=O)N[C@@H](CO)C(=O)NCC(=O)N[C@@H](CO)C(=O)NCC(=O)N[C@@H](CO)C(=O)N[C@@H](CCCCNC(=O)CCCC[C@@H]1SC[C@@H]2NC(=O)N[C@@H]21)C(=O)O [YSA peptide]
MAP kinase
  MAP kinase activation: suppresses MAP kinase activation

## CSCC[C@H](NC(=O)[C@H](CCSC)NC(=O)[C@@H]1CCCN1C(=O)[C@@H](NC(=O)[C@H](CO)NC(=O)[C@H](CC(=O)O)NC(=O)[C@@H]1CCCN1C(=O)[C@H](Cc1ccc(O)cc1)NC(=O)[C@H](C)NC(=O)[C@H](CO)NC(=O)[C@@H](N)Cc1ccc(O)cc1)C(C)C)C(=O)N[C@@H](CO)C(=O)O [YSA peptide]
EphA2
  functional effect on EphA2 (tyrosine phosphorylation, suppression of MAP kinase): agonist for EphA2

## KYLPYWPVLSSL
Endogenous EphA4
  ephrin-A3-induced tyrosine phosphorylation of endogenous EphA4: antagonize
Endogenous EphA4; listed as KYL peptide
  ephrin-A3-induced tyrosine phosphorylation of endogenous EphA4: lower concentrations than the APY and VTM peptides
Neural crest cells [1]
  migration of neural crest cells: ectopic migration of neural crest cells into the caudal half-selerotome

## KYLPYWPVLSSL [KYL peptide]
Neural crest cells [2]
  migration of neural crest cells: ectopic migration of neural crest cells into the caudal half-selerotome

## VTMEAINLAFPG
Endogenous EphA4
  ephrin-A3-induced tyrosine phosphorylation of endogenous EphA4: antagonize
